The target in one assay is Cholinesterase (Equus caballus, UniProt P81908).
Assay [1] deals with T1, Acetylcholinesterase (Electrophorus electricus, UniProt O42275).
Description: Inhibition of electric eel AChE using acetylthiocholine iodide as substrate preincubated for 10 mins prior to substrate addition by Ellman's method
Assay [2] has as its target T1, Acetylcholinesterase. Description: Mixed-type inhibition of electric eel AChE using acetylthiocholine iodide as substrate by Lineweaver-Burk plot analysis.

T1 sequence (O42275 whole entry): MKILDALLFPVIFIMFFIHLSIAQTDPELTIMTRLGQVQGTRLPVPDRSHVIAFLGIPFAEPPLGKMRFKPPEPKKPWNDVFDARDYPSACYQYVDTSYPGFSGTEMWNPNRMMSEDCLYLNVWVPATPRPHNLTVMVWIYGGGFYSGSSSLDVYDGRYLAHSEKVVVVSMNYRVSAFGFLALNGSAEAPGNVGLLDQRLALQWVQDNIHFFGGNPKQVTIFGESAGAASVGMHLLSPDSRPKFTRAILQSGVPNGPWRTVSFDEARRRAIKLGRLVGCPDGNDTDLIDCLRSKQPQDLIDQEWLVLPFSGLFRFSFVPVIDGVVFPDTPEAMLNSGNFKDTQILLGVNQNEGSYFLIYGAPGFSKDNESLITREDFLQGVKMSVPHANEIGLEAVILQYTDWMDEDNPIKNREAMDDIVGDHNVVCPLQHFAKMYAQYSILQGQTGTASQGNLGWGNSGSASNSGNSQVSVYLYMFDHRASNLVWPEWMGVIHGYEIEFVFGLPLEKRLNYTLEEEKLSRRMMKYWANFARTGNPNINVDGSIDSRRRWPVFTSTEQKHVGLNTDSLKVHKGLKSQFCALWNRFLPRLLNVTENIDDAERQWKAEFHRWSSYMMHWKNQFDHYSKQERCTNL
Sequence of Cholinesterase (P81908 whole entry): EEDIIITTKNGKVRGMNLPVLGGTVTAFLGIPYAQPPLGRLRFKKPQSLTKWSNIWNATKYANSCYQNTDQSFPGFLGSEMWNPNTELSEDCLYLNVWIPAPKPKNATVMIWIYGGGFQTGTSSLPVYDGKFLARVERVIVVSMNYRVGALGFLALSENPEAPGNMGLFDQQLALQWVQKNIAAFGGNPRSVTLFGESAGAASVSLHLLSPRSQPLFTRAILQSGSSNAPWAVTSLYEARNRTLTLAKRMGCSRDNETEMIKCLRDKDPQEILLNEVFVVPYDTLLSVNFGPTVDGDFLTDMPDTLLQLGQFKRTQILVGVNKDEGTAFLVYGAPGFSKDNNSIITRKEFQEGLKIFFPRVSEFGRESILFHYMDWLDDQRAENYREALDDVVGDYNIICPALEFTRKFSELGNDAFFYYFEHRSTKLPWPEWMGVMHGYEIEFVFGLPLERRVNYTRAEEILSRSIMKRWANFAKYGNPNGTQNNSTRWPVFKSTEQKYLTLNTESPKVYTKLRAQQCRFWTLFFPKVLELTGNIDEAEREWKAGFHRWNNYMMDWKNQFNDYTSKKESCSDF

What is called IC50 is the concentration at which inhibition is half-maximal. As to `CCCCC1c2c(nc3c(c2N)CCCC3)Oc2c1c(=O)oc1ccccc21` (configuration not stated), the IC50 stood at 23000 nM on Cholinesterase and 57 nM against Acetylcholinesterase [1].
For `Nc1c2c(nc3c1C(c1cccc([N+](=O)[O-])c1)c1c(c4ccccc4oc1=O)O3)CCCC2` (configuration not stated), the IC50 at Cholinesterase came to 18300 nM; at Acetylcholinesterase [1] it was 141 nM.
Taken in the same sequence, the figures for `Nc1c2c(nc3c1C(c1cccc(Cl)c1)c1c(c4ccccc4oc1=O)O3)CCCC2` (configuration not stated) were more than 30000 nM and 288 nM.
Turning to `COc1ccc(C2c3c(nc4c(c3N)CCCC4)Oc3c2c(=O)oc2ccccc32)cc1` (configuration not stated), the values for the IC50 against Cholinesterase and against Acetylcholinesterase [1] were 840 nM and 16 nM, respectively.
`Nc1c2c(nc3c1C(c1cccc(F)c1)c1c(c4ccccc4oc1=O)O3)CCCC2` (configuration not stated): the IC50 against Cholinesterase stood at 890 nM; against Acetylcholinesterase [1] it was 67 nM.
Taken in the same sequence, the figures for `Nc1c2c(nc3c1C(c1ccc(Cl)cc1Cl)c1c(c4ccccc4oc1=O)O3)CCCC2` (configuration not stated) were more than 30000 nM and 50 nM.
`Nc1c2c(nc3c1C(c1ccccc1)c1c(c4ccccc4oc1=O)O3)CCCC2` (configuration not stated): the results for the concentration for half-maximal inhibition (IC50) at Cholinesterase and at Acetylcholinesterase [1] were 1700 nM and 24 nM, respectively.
Taken in the same sequence, the figures for `Nc1c2c(nc3c1C(c1cccs1)c1c(c4ccccc4oc1=O)O3)CCCC2` (configuration not stated) were 6700 nM and 84 nM.
Taken in the same sequence, the figures for `COc1ccc(C2c3c(nc4c(c3N)CCCC4)Oc3c2c(=O)oc2ccccc32)cc1OC` (configuration not stated) were 2100 nM and 43 nM.
On to `CCC1c2c(nc3c(c2N)CCCC3)Oc2c1c(=O)oc1ccccc21` (configuration not stated), for which the IC50 came out at 5600 nM against Cholinesterase and 266 nM at Acetylcholinesterase [1].
Turning to `Nc1c2c(nc3c1C(c1ccncc1)c1c(c4ccccc4oc1=O)O3)CCCC2` (configuration not stated), the IC50 against Cholinesterase is more than 30000 nM; against Acetylcholinesterase [1], 53 nM.
A word on the Ki: it is the equilibrium dissociation constant of an inhibitor or competing ligand from its target. Lower therefore signals higher affinity. `Nc1c2c(nc3c1C(c1ccc(F)cc1)c1c(c4ccccc4oc1=O)O3)CCCC2` (configuration not stated) came in with a Ki at Acetylcholinesterase [2] of 22.4 nM. Besides, the IC50 amounted to 15700 nM at Cholinesterase and 5 nM on Acetylcholinesterase [1].
As for `COc1cc(C2c3c(nc4c(c3N)CCCC4)Oc3c2c(=O)oc2ccccc32)cc(OC)c1OC` (configuration not stated), the IC50 came out at 3260 nM at Cholinesterase and 69 nM against Acetylcholinesterase [1].
For `Nc1c2c(nc3c1C(c1ccc4c(c1)OCO4)c1c(c4ccccc4oc1=O)O3)CCCC2` (configuration not stated) the same measures were 570 nM and 13 nM.
For `Nc1c2c(nc3c1C(c1ccc(Cl)cc1)c1c(c4ccccc4oc1=O)O3)CCCC2` (configuration not stated) the same measures were more than 30000 nM and 93 nM.
For `CC1c2c(nc3c(c2N)CCCC3)Oc2c1c(=O)oc1ccccc21` (configuration not stated), the IC50 against Cholinesterase is 1220 nM; on Acetylcholinesterase [1], 432 nM.
For `Nc1c2c(nc3c1C(c1ccccc1Cl)c1c(c4ccccc4oc1=O)O3)CCCC2` (configuration not stated) the same measures were 4900 nM and 35 nM.
For the compound `Cc1ccc(C2c3c(nc4c(c3N)CCCC4)Oc3c2c(=O)oc2ccccc32)cc1` (configuration not stated), the IC50 is more than 30000 nM on Cholinesterase and 14 nM against Acetylcholinesterase [1].

These data come from ChEMBL document CHEMBL2424599, “Design, synthesis, docking study and biological evaluation of some novel tetrahydrochromeno [3',4':5,6]pyrano[2,3-b]quinolin-6(7H)-one derivatives against acetyl- and butyrylcholinesterase” (Eur J Med Chem, 2013).
